In US6737383B1, “Herbicidal oxadiazolidines” (priority 1999, dated 2004):

Tests used:
sandbur = assay: Test D sandbur; assay type: in vivo, Cenchrus echinatus; details: Postemergence, 0 to 100 scale
dallisgrass = assay: Test D dallisgrass; assay type: in vivo, Paspalum dilatatum; details: Postemergence, 0 to 100 scale
surinam grass = assay: Test C postemergence surinam grass; assay type: in vivo, Brachiaria decumbens; details: 0 to 100 scale, 0 no effect, 100 complete control
Experimental: (§1) Compounds evaluated in this test were formulated in a non-phytotoxic solvent mixture which included a surfactant and applied to plants that were grown for various periods of time before treatment (postemergence application). A mixture of sandy loam soil and greenhouse potting mix in a 60:40 ratio was used for the postemergence test.
(§2) Plantings of these crops and weed species were adjusted to produce plants of appropriate size for the postemergence test. All plant species were grown using normal greenhouse practices. Crop and weed species include arrowleaf sida (Sida rhombifolia), barnyardgrass (Echinochloa crus-galli), cocklebur (Xanthium strumarium), common ragweed (Ambrosia elatior), corn (Zea mays), cotton (Gossypium hirsutum), eastern black nightshade (Solanum ptycanthum), fall panicum (Panicum dichotomiflorum), field bindweed (Convolvulus arvensis), giant foxtail (Setaria faberii), hairy beggarticks (Bidens pilosa), ivyleaf morningglory (Ipomoea hederacea), johnsongrass (Sorghum halepense), ladysthumb smartweed (Polygonum persicaria), lambsquarters (Chenopodium album), large crabgrass (Digitaria sanguinalis), purple nutsedge (Cyperus rotundus), redroot pigweed (Amaranthus retroflexus), soybean (Glycine max), surinam grass (Brachiaria decumbens), velvetleaf (Abutilon theophrasti) and wild poinsettia (Euphorbia heterophylla).
(§3) Treated plants and untreated controls were maintained in a greenhouse for approximately 14, to 21 days, after which all treated plants were compared to untreated controls and visually evaluated. Plant response ratings, summarized in Table C, were based upon a 0 to 100 scale where 0 was no effect and 100 was complete control. A dash response (−) means no test result.

large crabgrass = assay: Test C postemergence large crabgrass; assay type: in vivo, Digitaria sanguinalis; details: 0 to 100 scale, 0 no effect, 100 complete control
Method in brief: (§4)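 In this greenhouse assay, treated and untreated plants were kept for approximately 14 to 21 days following postemergence application, then rated by eye on a scale from 0 (no effect) to 100 (complete control).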

sunflower = assay: Test E sunflower; assay type: in vivo, Helianthus annuus; details: Postemergence; for Plant response rating, Sunflower: 0 to 100 scale; for Sunflower plant response rating: Rate 250 g/ha, 0 to 100 scale where 0 is no effect and 100 is complete control
Experimental: […] All plant species were grown using normal greenhouse practices. Crop and weed species include annual bluegrass (Poa annua), blackgrass (Alopecurus myosuroides), black nightshade (Solanum nigra), chickweed (Stellaria media), common poppy (Papaver rhoeas), deadnettle (Lamium amplexicaule), downy brome (Bromus tectorum), field violet (Viola arvensis), galium (Galium aparine), green foxtail (Setaria viridis), Italian ryegrass (Lolium multiflorum), jointed goatgrass (Aegilops cylindrica), kochia (Kochia scoparia), lambsquarters (Chenopodium album), littleseed canarygrass (Phalaris minor), rape (Brassica napus), redroot pigweed (Amaranthus retroflexus), Russian thistle (Salsola kali), scentless chamomile (Matricaria inodora), spring barley (Hordeum vulgare), sugar beet (Beta vulgaris), sunflower (Helianthus annuus), ivyleaf speedwell (Veronica hederaefolia), spring wheat (Triticum aestivum), winter wheat (Triticum aestivum), wild buckwheat (Polygonum convolvulus), wild mustard (Sinapis arvensis), wild oat (Avena fatua), windgrass (Apera spica-venti) and winter barley (Hordeum vulgare).
(§5) Treated plants and untreated controls were maintained in a greenhouse for approximately 21 to 28 days, after which all treated plants were compared to untreated controls and visually evaluated. […] A dash response (-) means no test result.

spring barley = assay: Test E spring barley; assay type: in vivo, Hordeum vulgare; details: Postemergence; for Plant response rating, Spring Barley: 0 to 100 scale; for Spring Barley plant response rating: Rate 250 g/ha, 0 to 100 scale where 0 is no effect and 100 is complete control
Experimental: (§6) Compounds evaluated in this test were formulated in a non-phytotoxic solvent mixture which included a surfactant and applied to plants that were in the 1- to 4-leaf stage (postemergence application). A mixture of sandy loam soil and greenhouse potting mix in a 60:40 ratio was used for the postemergence test.
(§7) Plantings of these crops and weed species were adjusted to produce plants of appropriate size for the postemergence test. All plant species were grown using normal greenhouse practices. Crop and weed species include annual bluegrass (Poa annua), blackgrass (Alopecurus myosuroides), black nightshade (Solanum nigra), chickweed (Stellaria media), common poppy (Papaver rhoeas), deadnettle (Lamium amplexicaule), downy brome (Bromus tectorum), field violet (Viola arvensis), galium (Galium aparine), green foxtail (Setaria viridis), Italian ryegrass (Lolium multiflorum), jointed goatgrass (Aegilops cylindrica), kochia (Kochia scoparia), lambsquarters (Chenopodium album), littleseed canarygrass (Phalaris minor), rape (Brassica napus), redroot pigweed (Amaranthus retroflexus), Russian thistle (Salsola kali), scentless chamomile (Matricaria inodora), spring barley (Hordeum vulgare), sugar beet (Beta vulgaris), sunflower (Helianthus annuus), ivyleaf speedwell (Veronica hederaefolia), spring wheat (Triticum aestivum), winter wheat (Triticum aestivum), wild buckwheat (Polygonum convolvulus), wild mustard (Sinapis arvensis), wild oat (Avena fatua), windgrass (Apera spica-venti) and winter barley (Hordeum vulgare).
as §5

corn = assay: Test C postemergence corn; assay type: in vivo, Zea mays; details: 0 to 100 scale, 0 no effect, 100 complete control
Experimental: as §1, §2, §3

rape = assay: Test E rape; assay type: in vivo, Brassica napus; details: Postemergence; for Plant response rating, Rape: 0 to 100 scale; for Rape plant response rating: Rate 250 g/ha, 0 to 100 scale where 0 is no effect and 100 is complete control
Method in brief: (§8)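 Greenhouse test: compounds in non-phytotoxic solvent with surfactant; for postemergence, sprayed on plants at 1- to 4-leaf stage grown in 60:40 sandy loam/potting mix. Injury rated visually against untreated controls after about 21 to 28 days.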

field violet = assay: Test E field violet; assay type: in vivo, Viola arvensis; details: Postemergence; for Plant response rating, Field violet: 0 to 100 scale; for Field violet plant response rating: Rate 250 g/ha, 0 to 100 scale where 0 is no effect and 100 is complete control
Method in brief: as §8

eastern black nightshade = assay: Test C postemergence eastern black nightshade; assay type: in vivo, Solanum ptycanthum; details: 0 to 100 scale, 0 no effect, 100 complete control
Method in brief: as §4

black nightshade = assay: Test E black nightshade; assay type: in vivo, Solanum nigra; details: Postemergence; for Plant response rating, Blk nightshade: 0 to 100 scale; for Blk nightshade plant response rating: Rate 250 g/ha, 0 to 100 scale where 0 is no effect and 100 is complete control
Experimental: as §6, §7, §5

littleseed canarygrass = assay: Test E littleseed canarygrass; assay type: in vivo, Phalaris minor; details: Preemergence; for LS canarygrass plant response rating (0 to 100 scale): Rate 250 g/ha
[1] = Rate 16 g/ha, 0 no injury, 100 complete control
[2] = Rate 32 g/ha, 0 no injury, 100 complete control
[3] = Rate 64 g/ha, 0 no injury, 100 complete control
[4] = Rate 125 g/ha, 0 no injury, 100 complete control
[5] = Rate 125 g/ha, 0 to 100 scale (0 no effect, 100 complete control)
[6] = Rate 125 g/ha, 0 is no effect, 100 is complete control
[7] = Rate 500 g/ha, 0 is no effect, 100 is complete control

CC(C)N(C(=O)n1oc(=O)n(C2CCCCCC2)c1=O)c1ccc(F)cc1F [Compound 342]
Plant response rating, Sandbur (sandbur; [1]): 0
Plant response rating, Sandbur (sandbur; [2]): 0
Sandbur plant response rating (sandbur; [3]): 0
Plant response rating, Sandbur (sandbur; Rate 250 g/ha): 0
Plant response rating, Dallisgrass (dallisgrass; [1]): 0
Plant response rating, Dallisgrass (dallisgrass; [2]): 0
Plant response rating, Dallisgrass (dallisgrass; [3]): 0
Plant response rating, Dallisgrass (dallisgrass; [4]): 90
Plant response rating, Dallisgrass (dallisgrass; Rate 250 g/ha): 100

CC(C)N(C(=O)n1oc(=O)n(C)c1=O)c1ccc(F)cc1 [Compound 138]
Plant response rating, Surinam grass (surinam grass; Rate 140 g/ha): 10
Plant response rating, Surinam grass (surinam grass; Rate 280 g/ha): 40
Plant response rating, Surinam grass (surinam grass; Rate 560 g/ha): 85
Plant response rating, Surinam grass (surinam grass; Rate 1120 g/ha): 90
Plant response rating, Large crabgrass (large crabgrass; Rate 140 g/ha): 0
Plant response rating, Large crabgrass (large crabgrass; Rate 280 g/ha): 10
Plant response rating, Large crabgrass (large crabgrass; Rate 560 g/ha): 85
Plant response rating, Large crabgrass (large crabgrass; Rate 1120 g/ha): 85
Plant response rating, Sunflower (sunflower; Rate 125 g/ha): 0
Sunflower plant response rating (sunflower): 0
Plant response rating, Spring Barley (spring barley; Rate 125 g/ha): 0
Spring Barley plant response rating (spring barley): 5
Plant response rating, Corn (corn; Rate 280 g/ha): 20
Plant response rating, Corn (corn; Rate 560 g/ha): 50
Plant response rating, Corn (corn; Rate 1120 g/ha): 60
Plant response rating, Rape (rape; Rate 125 g/ha): 10
Rape plant response rating (rape): 0
Plant response rating, Field violet (field violet; Rate 125 g/ha): 10
Field violet plant response rating (field violet): 30
Plant response rating E. blacknightsh (eastern black nightshade; Rate 140 g/ha): 0
Plant response rating E. blacknightsh (eastern black nightshade; Rate 280 g/ha): 10
Plant response rating E. blacknightsh (eastern black nightshade; Rate 560 g/ha): 70
Plant response rating E. blacknightsh (eastern black nightshade; Rate 1120 g/ha): 70
Plant response rating, Blk nightshade (black nightshade; Rate 125 g/ha): 20
Blk nightshade plant response rating (black nightshade): 60
Plant response rating, LS canarygrass (littleseed canarygrass; [5]): 70
LS canarygrass plant response rating (0 to 100 scale) (littleseed canarygrass): 85

CC(C)N(C(=O)n1oc(=O)n(C2CC2)c1=O)c1ccc(F)cc1 [Compound 242]
Plant response rating, Sandbur (sandbur; [1]): 20
Plant response rating, Sandbur (sandbur; [2]): 30
Sandbur plant response rating (sandbur; [3]): 50
Sandbur plant response rating (sandbur; [4]): 100
Plant response rating, Sandbur (sandbur; Rate 250 g/ha): 100
Plant response rating, Surinam grass (surinam grass; Rate 140 g/ha): 0
Plant response rating, Surinam grass (surinam grass; Rate 280 g/ha): 40
Plant response rating, Surinam grass (surinam grass; Rate 560 g/ha): 85
Plant response rating, Surinam grass (surinam grass; Rate 1120 g/ha): 90
Plant response rating, Large crabgrass (large crabgrass; Rate 140 g/ha): 10
Plant response rating, Large crabgrass (large crabgrass; Rate 280 g/ha): 30
Plant response rating, Large crabgrass (large crabgrass; Rate 560 g/ha): 85
Plant response rating, Large crabgrass (large crabgrass; Rate 1120 g/ha): 85
Plant response rating, Sunflower (sunflower; Rate 62 g/ha): 10
Plant response rating, Sunflower (sunflower; [6]): 10
Sunflower plant response rating (sunflower): 0
Plant response rating, Sunflower (sunflower; [7]): 20
Plant response rating, Spring Barley (spring barley; Rate 62 g/ha): 5
Plant response rating, Spring Barley (spring barley; [6]): 20
Spring Barley plant response rating (spring barley): 20
Plant response rating, Spring Barley (spring barley; [7]): 20
Plant response rating, Corn (corn; Rate 140 g/ha): 0
Plant response rating, Corn (corn; Rate 280 g/ha): 0
Plant response rating, Corn (corn; Rate 560 g/ha): 0
Plant response rating, Corn (corn; Rate 1120 g/ha): 20
Plant response rating, Rape (rape; Rate 62 g/ha): 20
Plant response rating, Rape (rape; [6]): 10
Rape plant response rating (rape): 0
Plant response rating, Rape (rape; [7]): 50
Plant response rating, Dallisgrass (dallisgrass; [1]): 60
Plant response rating, Dallisgrass (dallisgrass; [2]): 90
Plant response rating, Dallisgrass (dallisgrass; [3]): 90
Plant response rating, Dallisgrass (dallisgrass; [4]): 100
Plant response rating, Dallisgrass (dallisgrass; Rate 250 g/ha): 100
Plant response rating, Field violet (field violet; Rate 62 g/ha): 30
Plant response rating, Field violet (field violet; [6]): 60
Field violet plant response rating (field violet): 0
Plant response rating, Field violet (field violet; [7]): 40
Plant response rating E. blacknightsh (eastern black nightshade; Rate 140 g/ha): 0
Plant response rating E. blacknightsh (eastern black nightshade; Rate 280 g/ha): 40
Plant response rating E. blacknightsh (eastern black nightshade; Rate 560 g/ha): 60
Plant response rating E. blacknightsh (eastern black nightshade; Rate 1120 g/ha): 90
Plant response rating, Blk nightshade (black nightshade; Rate 62 g/ha): 60
Plant response rating, Blk nightshade (black nightshade; [6]): 30
Blk nightshade plant response rating (black nightshade): 50
Plant response rating, Blk nightshade (black nightshade; [7]): 75
Plant response rating, LS canarygrass (littleseed canarygrass; [5]): 100
LS canarygrass plant response rating (0 to 100 scale) (littleseed canarygrass): 100
Plant response rating, LS canarygrass (littleseed canarygrass; Rate 500 g/ha, 0 to 100 scale where 0 is no effect and 100 is complete control): 100
